According to US11000033B2, “Ketone or oxime compound, and herbicide” (NISSAN CHEMICAL CORPORATION, priority 2014, dated 2021):

How the values were obtained:
Assay type in all cases: in vivo
[1] = system: transplanted rice plant; test: Test Example 1: effect on crop, application before weed generation in submerged conditions (symbol a); conditions: application herbicide amount 320 g/ha
Summary of the method: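 Alluvial soil pots flooded to 4 cm water, sown with Echinochloa oryzacola, Scirpus juncoides and Monochoria vaginalis, then transplanted with 2.5 leaf stage rice seedlings; pre-emergence application. Greenhouse 25° C. to 30° C.; scored 0–5 by herbicidal ratio 3 weeks after application.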

[2] = system: soybean; test: Test Example 4: effect on crop by soil treatment (symbol d); conditions: application herbicide amount 320 g/ha
Summary of the method: (§1)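 Grown at 25° C. to 30° C. in a greenhouse, the crops came from seed sown spot-wise in sterilized diluvial soil under roughly 1.5 cm of covering soil.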

[3] = system: Echinochloa oryzacola Vasing.; test: Test Example 1: herbicidal activity, application before weed generation in submerged conditions (symbol A); conditions: application herbicide amount 320 g/ha
Summary of the method: (§2)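 Paddy pre-emergence test. Formulated emulsion, water-diluted to a predetermined rate, is applied to floodwater on sowing day; rice transplanted at 2.5 leaves. Effect read at 3 weeks on a 0–5 herbicidal-ratio scale.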

[4] = system: directly sowed rice plant; test: Test Example 3: effect on crop by foliage application, Wagner pot (symbol b); conditions: application herbicide amount 320 g/ha
Summary of the method: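 Steps: fill a 1/10000-are Wagner pot with alluvial soil; add water and mix to submerge at 0.1–0.5 cm depth; sow rice plus Echinochloa crus-galli var. crus-galli, Leptochloa chinensis and Cyperus difformis; grow in a 25–30 °C greenhouse.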

[5] = system: corn; test: Test Example 5: effect on crop by foliage application, plastic box (symbol c); conditions: 320 g/ha, 3 weeks after application
Summary of the method: (§3)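 Plants were raised from seed in a greenhouse (25° C. to 30° C.) after sowing in a plastic box of sterilized diluvial soil.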

[6] = system: Digitaria ciliaris; test: Test Example 5: herbicidal effect by foliage application, plastic box (symbol F); conditions: 320 g/ha, 3 weeks after application
Summary of the method: (§4)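 Sowing in sterilized diluvial soil, 14 days' greenhouse growth at 25° C. to 30° C., then uniform small-sprayer foliar application of aqueous emulsion dilution; plants scored three weeks afterwards.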

[7] = system: rice plant; test: Test Example 5: effect on crop by foliage application, plastic box (symbol b); conditions: 320 g/ha, 3 weeks after application
Summary of the method: as §3

[8] = system: Monochoria vaginalis; test: Test Example 1: herbicidal activity, application before weed generation in submerged conditions (symbol C); conditions: application herbicide amount 320 g/ha
Summary of the method: as §2

[9] = system: Lolium multiflorum Lam.; test: Test Example 4: herbicidal effect by soil treatment (symbol K); conditions: application herbicide amount 320 g/ha
Summary of the method: (§5)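 Seeds were sown in sterilized diluvial soil, covered with about 1.5 cm of soil, and the soil surface was sprayed with a water-diluted emulsion of the compound at a predetermined rate. Plants grew in a greenhouse at 25° C. to 30° C.; effects were scored visually 3 weeks after application.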

[10] = system: Alopecurus myosuroides; test: Test Example 5: herbicidal effect by foliage application, plastic box (symbol J); conditions: 320 g/ha, 3 weeks after application
Summary of the method: as §4

[11] = system: Lolium multiflorum Lam.; test: Test Example 5: herbicidal effect by foliage application, plastic box (symbol K); conditions: 320 g/ha, 3 weeks after application
Summary of the method: as §4

[12] = system: Abutilon theophrasti; test: Test Example 5: herbicidal effect by foliage application, plastic box (symbol M); conditions: 320 g/ha, 3 weeks after application
Summary of the method: as §4

[13] = system: Echinochloa crus-galli var. crus-galli; test: Test Example 5: herbicidal effect by foliage application, plastic box (symbol H); conditions: 320 g/ha, 3 weeks after application
Summary of the method: as §4

[14] = system: rice; test: Test Example 4: effect on crop by soil treatment (symbol b); conditions: application herbicide amount 320 g/ha
Summary of the method: as §1

[15] = system: Amaranthus retroflexus; test: Test Example 5: herbicidal effect by foliage application, plastic box (symbol N); conditions: 320 g/ha, 3 weeks after application
Summary of the method: as §4

[16] = system: Chenopodium album; test: Test Example 4: herbicidal effect by soil treatment (symbol O); conditions: application herbicide amount 320 g/ha
Summary of the method: as §5

| SMILES | Effect grade on crop, a: transplanted rice plant [1] | d: soybean, effect on crop grade [2] | Herbicidal effect grade, A: Echinochloa oryzacola Vasing. [3] | effect on crop b (directly sowed rice plant), grade 0-5 [4] | c: corn, effect on crop (criteria of Test Example 1) [5] | F: Digitaria ciliaris, herbicidal effect (criteria of Test Example 1) [6] | b: directly sowed rice plant, effect on crop (criteria of Test Example 1) [7] | Herbicidal effect grade, C: Monochoria vaginalis [8] | K: Lolium multiflorum Lam., herbicidal effect grade [9] | J: Alopecurus myosuroides, herbicidal effect (criteria of Test Example 1) [10] | K: Lolium multiflorum Lam., herbicidal effect (criteria of Test Example 1) [11] | M: Abutilon theophrasti, herbicidal effect (criteria of Test Example 1) [12] | H: Echinochloa crus-galli var. crus-galli, herbicidal effect (criteria of Test Example 1) [13] | b: directly sowed rice plant, effect on crop grade [14] | N: Amaranthus retroflexus, herbicidal effect (criteria of Test Example 1) [15] | O: Chenopodium album, herbicidal effect grade [16] |
| --- | --- | --- | --- | --- | --- | --- | --- | --- | --- | --- | --- | --- | --- | --- | --- | --- |
| CON=C(C)CC1CC(OCOC(=O)c2ccccc2)=C(c2c(C)cc(-c3ccc(Cl)cc3)cc2C)C1=O (centres unmarked) [6-083] | 5 (Herbicidal ratio of 90% or more (almost completely withered)) | 0 (Herbicidal ratio of 5% or lower (almost no effect)) | 5 (Herbicidal ratio of 90% or more (almost completely withered)) | 5 (Herbicidal ratio of 90% or more (almost completely withered)) | 5 (Herbicidal ratio of 90% or more (almost completely withered)) | 5 (Herbicidal ratio of 90% or more (almost completely withered)) | 5 (Herbicidal ratio of 90% or more (almost completely withered)) | 4 (Herbicidal ratio of 70% or higher and lower than 90%) | 1 (Herbicidal ratio of 5% or higher and lower than 20%) | 5 (Herbicidal ratio of 90% or more (almost completely withered)) | 4 (Herbicidal ratio of 70% or higher and lower than 90%) | 5 (Herbicidal ratio of 90% or more (almost completely withered)) | 5 (Herbicidal ratio of 90% or more (almost completely withered)) | 0 (Herbicidal ratio of 5% or lower (almost no effect)) | 3 (Herbicidal ratio of 40% or higher and lower than 70%) | 0 (Herbicidal ratio of 5% or lower (almost no effect)) |
| CON=C(C)CC1CC(O)=C(c2c(C)cc(-c3ccc(Cl)cc3F)cc2C)C1=O (centres unmarked) [6-084] | 5 (Herbicidal ratio of 90% or more (almost completely withered)) | 5 (Herbicidal ratio of 90% or more (almost completely withered)) | 5 (Herbicidal ratio of 90% or more (almost completely withered)) | 5 (Herbicidal ratio of 90% or more (almost completely withered)) | 0 (Herbicidal ratio of 5% or lower (almost no effect)) | 5 (Herbicidal ratio of 90% or more (almost completely withered)) | 5 (Herbicidal ratio of 90% or more (almost completely withered)) | 0 (Herbicidal ratio of 5% or lower (almost no effect)) | 5 (Herbicidal ratio of 90% or more (almost completely withered)) | 5 (Herbicidal ratio of 90% or more (almost completely withered)) | 5 (Herbicidal ratio of 90% or more (almost completely withered)) | 3 (Herbicidal ratio of 40% or higher and lower than 70%) | 5 (Herbicidal ratio of 90% or more (almost completely withered)) | 2 (Herbicidal ratio of 20% or higher and lower than 40%) | 3 (Herbicidal ratio of 40% or higher and lower than 70%) | 3 (Herbicidal ratio of 40% or higher and lower than 70%) |
